Data on 5 molecules can be found in US20030186370A1, “5ht3 receptors of nematodes, polynucleotide molecules encoding same, and antagonists thereof” (priority 2000, published 2003).

Experiment [1] deals with C. elegans. Kind of experiment: Effects of 5-HT receptor class-selective agonists and antagonists on C. elegans pharyngeal pumping and locomotion on agar. Format: in vivo. The method, then: For the experiments described below C. elegans of the Bristol N2 strain (Brenner, S. 1974. The genetics of Caenorhabditis elegans, Genetics, 77: 71-94) were cultured at room temperature on HMS174 E. coli bacteria (Campbell J. L. et al. 1978. Genetic recombination and complementation between bacteriophage T7 and cloned fragments of T77 DNA. Proc. Natl. Acad. Sci. USA. 75: 2276-2280) on NGM agar (Sulston, J. and Hodgkin, J. 1988, “Methods” in The nematode Caenorhabditis elegans. W. B. Wood pp 587-606. Cold Spring Harbor Laboratory Press, New York) unless otherwise described.
Studies were therefore conducted wherein selective 5-HT1, 5-HT2 and 5-HT3 agonists were applied at known concentrations to agar on which C. elegans was held in the absence of food and the effects on movement and pharyngeal pumping monitored over a period of 2-3 hours.
Studies were also conducted to investigate the ability of selective vertebrate 5-HT3 antagonists to inhibit the 5-HT-induced increase in pharyngeal pumping.

The subject of experiment [2] is C. elegans. Kind of experiment: Chronic exposure protocol: nematode growth and survival on NGM agar containing the compound. Format: in vivo. Particulars: for mortality at 5 µM / mortality at 10 µM / mortality at 20 µM / mortality at 40 µM / mortality at 81 µM / mortality at 162 µM / mortality at 325 µM: Caenorhabditis elegans. The method, then: Because the pharyngeal pump is essential for nematode feeding and the maintenance of the nematode “hydrostatic skeleton” [Brownlee, D. J. A. et al. 1997, supra] and a previously established target organ for nematicides, an investigation was conducted to assess whether the 5-HT3-selective antagonists would function as nematicidal agents in a chronic exposure protocol.
C. elegans nematodes were cultured on the HMS/174 strain of E. coli [Campbell, J. L. et al. 1978. Genetic recombination and complementation between bacteriophage T7 and cloned fragments of T7 DNA. Proc. Natl. Acad. Sci. USA. 75: 2276-2280] on NGM agar [Sulston, J. and Hodgkin, J. 1988, supra] in the wells of six well tissue culture cluster, 2 ml agar per well. MDL72222 was incorporated into the agar at the specified concentrations using ≦65 μl of acetone as a carrier. A control well contained 65 μl of acetone only. Between five and 11 L1 stage C. elegans were transferred to each well and the wells were incubated at 22° C. for up to four weeks. All concentrations >10 μM MDL 72222 caused developmental delays. Concentrations of MDL 72222 down to 80 μM caused 40 % mortality within three days. […] The bacterial food therefore remained uneaten for prolonged periods.
Concentrations of MDL72222 down to 20 μM caused 90-100% mortality within 21 days and concentrations as low as 10 μM and 5 μM caused 50-100% mortality at 21 days. At the lowest concentrations of MDL72222, nematode death was delayed until after the bacterial food had been consumed. […] The experiment shown in Table 3 was repeated with essentially identical results.

The subject of another experiment is Myzus persicae. Kind of experiment: Green Peach Aphid artificial diet sachet bioassay, growth and survival. Type of experiment: in vivo. Particulars: for Mean number of surviving aphids (out of 5) / Mean relative growth rate of survivors: after 5 days. The method, then:
The effects of MDL 72222 on Green Peach Aphid (Myzus persicae) was also tested. The bioassay involved testing compounds at 3 different concentrations (1 mM, 100 μM, 10 μM) in an artificial diet. Compounds that were not water-soluble were forced into solution using a non-toxic surfactant. For each compound, each concentration was tested in 10 replicate assays. In each replicate, 5 aphids were allowed to feed on the test solution in a Parafilm® sachet for a period of 5 days. Survivorship and aphid growth rate were compared among the test concentrations and a control containing only the artificial diet with surfactant.

The subject of another experiment is Helicoverpa armigera. Kind of experiment: Growth of neonate H. armigera on surface-contaminated artificial diet. Type of experiment: in vivo. Particulars: for Mean weight of larva (mg) at 7 days: 24 larvae; for activity at 100 µM / activity at 1000 µM: Helicoverpa armigera, 168 h, read-out: % of control weight.
For experiment [3], the system named is C. elegans. Kind of experiment: Dose-response of serotonin-stimulated pharyngeal pumping of C. elegans. Format: in vivo. Particulars: for IC50: in the presence of 0.325 mM serotonin (FIG. 2), read-out: IC50, inhibition of serotonin-stimulated pharyngeal pumping. The method, then: FIG. 1 provides dose-response curves for serotonin action on pharyngeal pumping. […] Any minor differences between the curves of FIGS. 1a and 1b are accounted for by the differences in experimental detail and the fact that in the microscopical assay, the rate of pumping is counted over a period of 1-3 minutes, whilst in the plate-based assays the fluorescence intensity represents the accumulation of ingested material over 60 minutes.
At this concentration of 5-HT, the IC50 for MDL72222 is approximately 30 μM, i.e. 10×lower than the EC50 for 5-HT.

Experiment [4] relates to snail 5-HT3-like ion channel. Particulars: Green et al. 1996; read-out: IC50 on the snail 5-HT3-like ion channel / 5-HT gated conductance; cited from earlier work.
The mark [5] stands for this setting: Table 3 experiment, 0.325 mM antagonist plus 0.325 mM serotonin.
Where [6] appears, read: Table 3 experiment, 0.325 mM, nothing else added.
[7] abbreviates: 72 h, read-out: % Mortality - 3 days.
Where [8] appears, read: 504 h, read-out: % Mortality - 21 days.
The mark [9] stands for this setting: 0.1 mM by surface contamination of diet.
The mark [10] stands for this setting: 1.0 mM by surface contamination of diet.
Setting [11] is: Table 2 experiment, 0.325 mM (each), nothing else added.

The structures appear in SMILES notation. Where two headings read alike, the source gives them in different places.

As for `Cc1[nH]c2ccc(O)cc2c1CCN.Cl` [2-methyl-5-hydroxytryptamine hydrochloride], in the experiment on C. elegans [1] (agonist 3 mM), the Effect on locomotion entry is on record as “Locomotion normal,”. The “Pumping rate (min-1) mean ± s.d.” value with C. elegans [1] (agonist 3 mM in agar, absence of food, 2-3 hours) is 130 ± 27 min⁻¹.

The term mortality denotes the percentage killed. As to `CN1[C@@H]2CC[C@H]1C[C@@H](OC(=O)c1cc(Cl)cc(Cl)c1)C2` [MDL 72222], the “Pumping rate (min-1) mean ± s.d.” value was determined as 2 ± 2 min⁻¹ with C. elegans [1] (setting [5]) and 1 ± 1 min⁻¹ with C. elegans [1] (setting [6]). Besides, the “Time to consumption of all bacteria” value with C. elegans [2] (5 μM in agar) was 7 days; in the experiment on C. elegans [2] (10 μM in agar), 8 days; in the experiment with C. elegans [2] (20 μM in agar) it was 9 days; with C. elegans [2] (40 μM in agar), 10 days; in the experiment on C. elegans [2] (81 μM in agar), 16 days; with C. elegans [2] (162 μM in agar), greater than 28 days. In addition, in the experiment on C. elegans [2] (325 μM in agar), the “Time to consumption of all bacteria” value is given as greater than 28 days. Besides, the figures for the mortality at 5 µM in the experiment on C. elegans [2] (setting [7]) and in the experiment on C. elegans [2] (setting [8]) were 0% and 100%, respectively. Besides, the mortality at 10 µM in the experiment on C. elegans [2] (setting [7]) was 0%; with C. elegans [2] (setting [8]) it was greater than 50%. In addition, the values for the mortality at 20 µM with C. elegans [2] (setting [7]) and in the experiment on C. elegans [2] (setting [8]) were 0% and 100%, respectively. Besides, the mortality at 40 µM with C. elegans [2] (setting [7]) is 0%; with C. elegans [2] (setting [8]) it was greater than 90%. In addition, the mortality at 81 µM with C. elegans [2] (setting [7]) is 42%; with C. elegans [2] (setting [8]), greater than 90%. Besides, the mortality at 162 µM in the experiment with C. elegans [2] (setting [7]) is 64%; in the experiment with C. elegans [2] (setting [8]), greater than 90%. Moreover, the values for the mortality at 325 µM in the experiment on C. elegans [2] (setting [7]) and in the experiment on C. elegans [2] (setting [8]) were 55% and 100%, respectively. Also, the “Concentrations that caused developmental delays” value with C. elegans [2] (L1 stage seeded, 22° C.) was greater than 10 µM. For the same molecule, the entries for the “Mean number of surviving aphids (out of 5)” value with Myzus persicae (0.01 mM in artificial diet), in the experiment on Myzus persicae (0.1 mM in artificial diet) and with Myzus persicae (1 mM in artificial diet) were 4.6, 3.4 and 0.9, respectively. For the same molecule, the “Mean relative growth rate of survivors” value in the experiment on Myzus persicae (0.01 mM in artificial diet) is 0.0339; in the experiment with Myzus persicae (0.1 mM in artificial diet), 0.0200; in the experiment with Myzus persicae (1 mM in artificial diet), 0.0383. The “Mean weight of larva (mg) at 7 days” value in the experiment on Helicoverpa armigera (setting [9]) stood at 51 mg; in the experiment with Helicoverpa armigera (setting [10]) it was 54 mg. Also, the activity at 100 µM in the experiment on Helicoverpa armigera (0.1 mM by surface contamination of diet, 7 days) was 70%. Besides, the activity at 1000 µM in the experiment with Helicoverpa armigera (1.0 mM by surface contamination of diet, 7 days) was 75%. The results for the IC50 in the experiment with C. elegans [3] (Caenorhabditis elegans) and in the experiment on C. elegans [3] were roughly 25 µM and roughly 30 µM, respectively.

`Cl.Clc1cccc(N2CCNCC2)c1` [m-CPP hydrochloride]: the Effect on locomotion result in the experiment on C. elegans [1] (agonist 1 mM (each, if combined)) was “Locomotion inhibited”; with C. elegans [1] (agonist 6 mM (each, if combined)), “Locomotion inhibited”. Further, the “Pumping rate (min-1) mean ± s.d.” value in the experiment on C. elegans [1] (agonist 1 mM (each, if combined) in agar, absence of food, 2-3 hours) worked out at 0 min⁻¹; with C. elegans [1] (agonist 6 mM (each, if combined) in agar, absence of food, 2-3 hours), 0 min⁻¹.

Regarding `Cc1nccn1CC1CCc2c(c3ccccc3n2C)C1=O` (stereo not shown) [ondansetron], in the experiment on C. elegans [1] (setting [5]), the Effect on locomotion entry is recorded as “Nematodes moved normally” and the “Pumping rate (min-1) mean ± s.d.” value is 32 ± 29 min⁻¹. Besides, in the experiment with C. elegans [1] (setting [6]), the Effect on locomotion entry is listed as “Nematodes moved normally” and the “Pumping rate (min-1) mean ± s.d.” value came to 0 ± 0 min⁻¹. Also, the IC50 in experiment [4] was 10 µM. Besides, in the experiment on Myzus persicae (1 mM, 100 μM, 10 μM in artificial diet, 5 days), the “Effect on M. persicae” value was “no discernible effect”. Moreover, in the experiment with Helicoverpa armigera (artificial diet, surface contamination), the “Effect on growth and development of neonate H. armigera” value was “no discernible effect”.

What is called EC50 is the concentration at which the effect is half-maximal. Turning to `NCCc1c[nH]c2ccc(O)cc12` [serotonin, 5-Hydroxytryptamine], in the experiment on C. elegans [1] (setting [11]), the Effect on locomotion result is reported as “Nematodes moved normally” and the “Pumping rate (min-1) mean ± s.d.” value was found to be 129 ± 6 min⁻¹. In the experiment with C. elegans [1] (setting [6]), the Effect on locomotion entry is recorded as “Nematodes moved normally” and the “Pumping rate (min-1) mean ± s.d.” value worked out at 54 ± 45 min⁻¹. Also, the “Mean weight of larva (mg) at 7 days” value with Helicoverpa armigera (setting [9]) stood at 85 mg. Also, in the experiment on Helicoverpa armigera (setting [10]), the “Mean weight of larva (mg) at 7 days” value worked out at 85 mg. In the experiment with Helicoverpa armigera, the activity at 100 µM was 116% and the activity at 1000 µM came to 116%. The EC50 in the experiment with C. elegans [3] (Caenorhabditis elegans, read-out: EC50 of 5-HT on pharyngeal pumping) was roughly 325 µM.
